Measured values from patent US20240368181A1, “QUINOXALINE DERIVATIVES AND USES THEREOF” (Black Diamond Therapeutics, Inc., priority 2021, published 2024).

Legend:
Assay type in all cases: cell-based
[1] = tested on: DMS-114 (FGFR1 overexpression) cells; assay: cell proliferation assay (CellTiterGlo), DMS-114 cells; conditions: Homo sapiens, DMS-114, 72 h
Procedure, shortened: (§1)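 Cells were suspended, dispensed into plates and incubated with vehicle (DMSO) or test compound at varying concentrations. Growth inhibition was measured by luminescent quantification of intracellular ATP (CellTiterGlo). IC50 values came from growth normalized to vehicle-treated cells taken as viable.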

[2] = tested on: RT-112 (FGFR3-Tacc3 fusion) cells; assay: cell proliferation assay (CellTiterGlo), RT-112 cells; conditions: Homo sapiens, RT-112, RT112 cells, 72 hours
Procedure, shortened: as §1

[3] = tested on: SNU-16 (FGFR2-amplification) cells; assay: cell proliferation assay (CellTiterGlo), SNU-16 cells; conditions: Homo sapiens, 72 hours
Procedure, shortened: as §1

[4] = tested on: UM-UC-14 (FGFR3-S249C) cells; assay: cell proliferation assay (CellTiterGlo), UM-UC-14 cells; conditions: UMUC14, 72 h
Procedure, shortened: as §1

| SMILES | IC50 [1] [nM] | IC50 [2] [nM] | IC50 [3] [nM] | IC50 [4] [nM] |
| --- | --- | --- | --- | --- |
| Cc1nc2ccc(Oc3ccc4ncc(-c5cnn(CC6CN(C)CCO6)c5)nc4c3Cl)cc2[nH]1 (stereo not drawn) [Compound 271] | ≥ 400 | < 20 | 20 to 100 | 20 to 100 |
| Cc1nc2ccc(Oc3ccc4ncc(-c5cnn([C@H]6C[C@@](C)(O)C6)c5)nc4c3Cl)c(F)c2[nH]1 [Compound 151] | 20 to 100 | < 20 | < 20 | < 20 |
| Cc1nc2ccc(Oc3ccc4ncc(-c5cnn(CC6(O)CC6)c5)nc4c3C3=CCOC3)c(F)c2[nH]1 [Compound 77] | 20 to 100 | < 20 | < 20 | 20 to 100 |
| C=C(C)c1c(Oc2ccc3nc(C)[nH]c3c2)ccc2ncc(-c3cnn(CC4CC(F)(F)C4)c3)nc12 [Compound 231] | ≥ 400 | 20 to 100 | 20 to 100 | 20 to 100 |
| Cc1nc2ccc(Oc3ccc4ncc(-c5cnn(CC(=O)N6CCC(F)C6)c5)nc4c3Cl)cc2[nH]1 (stereo not drawn) [Compound 290] | ≥ 400 | 20 to 100 | 20 to 100 | 20 to 100 |
| Cc1nc2cc(Oc3ccc4ncc(-c5cnn(CC(=O)N6CCC(F)(F)CC6)c5)nc4c3Cl)ccc2[nH]1 [Compound 332] | ≥ 400 | 20 to 100 | 20 to 100 | 20 to 100 |
| Cc1nc2ccc(Oc3ccc4ncc(-c5cnn(C6CCN(CC(F)(F)F)C7(CC7)C6)c5)nc4c3Cl)c(F)c2[nH]1 (stereo not drawn) [Compound 121] | ≥ 400 | 20 to 100 | 20 to 100 | 20 to 100 |
| Cc1nc2ccc(Oc3ccc4ncc(-c5cnn(C6CCN(C7COC7)CC6)c5)nc4c3Cl)cc2[nH]1 [Compound 340] | 100 to 400 | < 20 | < 20 | 20 to 100 |
| Cc1nc2ccc(Oc3ccc4ncc(-c5cnn(CC6CNCCO6)c5)nc4c3Cl)cc2[nH]1 (stereo not drawn) [Compound 273] | ≥ 400 | 20 to 100 | 20 to 100 | 20 to 100 |
| Cc1nc2ccc(Oc3ccc4ncc(-c5cnn(CC(=O)NCC(C)(C)NC=O)c5)nc4c3Cl)cc2[nH]1 [Compound 208] | ≥ 400 | 100 to 400 | 100 to 400 | ≥ 400 |
| Cc1nc2ccc(Oc3ccc4ncc(-c5cnn(C6CCN(c7ccccn7)CC6)c5)nc4c3Cl)cc2[nH]1 [Compound 194] | ≥ 400 | 100 to 400 | 100 to 400 | 100 to 400 |
| Cc1nc2ccc(Oc3ccc4ncc(-c5cnn(C(C)(C)C(=O)N6CC[C@@H](F)C6)c5)nc4c3Cl)cc2[nH]1 [Compound 210] | ≥ 400 | 20 to 100 | 100 to 400 | 100 to 400 |
| Cc1nc2ccc(Oc3ccc4ncc(-c5cnn(CC6CC(F)(F)C6)c5)nc4c3C3=CC(C)(C)OC3)cc2[nH]1 [Compound 76] | 100 to 400 | < 20 | < 20 | < 20 |
| Cc1nc2ccc(Oc3ccc4ncc(-c5cnn(CC6CC(F)(F)C6)c5)nc4c3Cl)cc2[nH]1 [Compound 387] | ≥ 400 | 20 to 100 | 20 to 100 | 20 to 100 |
| Cc1nc2ccc(Oc3ccc4ncc(-c5cnn([C@H](C)CO)c5)nc4c3Cl)cc2[nH]1 [Compound 126] | 100 to 400 | 20 to 100 | 20 to 100 | 20 to 100 |
| Cc1nc2c(F)c(Oc3ccc4ncc(-c5cnn(CC6CC(F)(F)C6)c5)nc4c3Cl)ccc2[nH]1 [Compound 229] | ≥ 400 | 20 to 100 | 20 to 100 | 20 to 100 |
| Cc1nc2ccc(Oc3ccc4ncc(-c5cnn(C6CC7CC6CN7C)c5)nc4c3Cl)cc2[nH]1 (stereo not drawn) [Compound 351] | 100 to 400 | 20 to 100 | 20 to 100 | 20 to 100 |
| C=CS(=O)(=O)N1CCC(Cn2cc(-c3cnc4ccc(Oc5ccc6nc(C)[nH]c6c5)c(Cl)c4n3)cn2)CC1 [Compound 384] | ≥ 400 | ≥ 400 | ≥ 400 | ≥ 400 |
